One test addresses T1, Human Calpain 9/NS1 (Homo sapiens, UniProt O14815).
T1 sequence (O14815 1-690): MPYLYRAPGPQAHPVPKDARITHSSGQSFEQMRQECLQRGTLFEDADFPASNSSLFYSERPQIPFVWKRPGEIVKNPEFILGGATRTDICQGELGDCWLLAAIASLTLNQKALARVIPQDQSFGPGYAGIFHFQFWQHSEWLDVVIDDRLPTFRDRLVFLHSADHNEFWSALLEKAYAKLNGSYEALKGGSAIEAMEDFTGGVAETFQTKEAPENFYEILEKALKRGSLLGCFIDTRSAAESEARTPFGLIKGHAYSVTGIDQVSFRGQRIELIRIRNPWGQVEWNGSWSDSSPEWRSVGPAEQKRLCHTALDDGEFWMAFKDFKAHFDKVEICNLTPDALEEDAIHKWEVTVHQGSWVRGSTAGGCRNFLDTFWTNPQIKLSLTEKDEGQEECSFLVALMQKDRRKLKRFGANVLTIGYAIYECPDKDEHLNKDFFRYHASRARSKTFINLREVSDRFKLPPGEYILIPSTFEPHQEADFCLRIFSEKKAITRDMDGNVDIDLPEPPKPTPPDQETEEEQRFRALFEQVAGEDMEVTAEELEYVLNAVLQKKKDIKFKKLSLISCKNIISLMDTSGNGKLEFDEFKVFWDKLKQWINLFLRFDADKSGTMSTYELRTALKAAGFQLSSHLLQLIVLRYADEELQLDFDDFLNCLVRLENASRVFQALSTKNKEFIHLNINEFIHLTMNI
T1 sequence (P04632 1-268 partner): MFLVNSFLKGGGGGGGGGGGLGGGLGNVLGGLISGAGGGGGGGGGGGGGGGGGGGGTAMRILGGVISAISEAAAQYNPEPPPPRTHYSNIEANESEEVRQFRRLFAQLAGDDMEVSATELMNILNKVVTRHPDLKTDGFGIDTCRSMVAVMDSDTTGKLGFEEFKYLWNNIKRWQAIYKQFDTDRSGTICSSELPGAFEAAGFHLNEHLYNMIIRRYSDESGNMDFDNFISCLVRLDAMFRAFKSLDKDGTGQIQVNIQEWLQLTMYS
Description: Biochemical inhibition of calpain 9, continuous fluorescence (FRET substrate) assay. The conditions noted are these: mean; read-out: Human Calpain 9/NS1 IC50 (nM)_MEAN. A digest of the protocol: (§1)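 Calpains preincubated with inhibitor at 25 °C in 50 mM Tris pH 7.5, 100 mM NaCl, 1 mM DTT; reaction started with 5-FAM/QXL520 FRET peptide plus CaCl2 for activation. Fluorescence (ex 490/em 520 nm) followed 10 min; rates from 1–5 min slopes, IC50 by 4-parameter logistic fit.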

The target of a further test is T2, Human Calpain 1/NS1 (Homo sapiens, UniProt P07384).
T2 sequence (P07384 1-714): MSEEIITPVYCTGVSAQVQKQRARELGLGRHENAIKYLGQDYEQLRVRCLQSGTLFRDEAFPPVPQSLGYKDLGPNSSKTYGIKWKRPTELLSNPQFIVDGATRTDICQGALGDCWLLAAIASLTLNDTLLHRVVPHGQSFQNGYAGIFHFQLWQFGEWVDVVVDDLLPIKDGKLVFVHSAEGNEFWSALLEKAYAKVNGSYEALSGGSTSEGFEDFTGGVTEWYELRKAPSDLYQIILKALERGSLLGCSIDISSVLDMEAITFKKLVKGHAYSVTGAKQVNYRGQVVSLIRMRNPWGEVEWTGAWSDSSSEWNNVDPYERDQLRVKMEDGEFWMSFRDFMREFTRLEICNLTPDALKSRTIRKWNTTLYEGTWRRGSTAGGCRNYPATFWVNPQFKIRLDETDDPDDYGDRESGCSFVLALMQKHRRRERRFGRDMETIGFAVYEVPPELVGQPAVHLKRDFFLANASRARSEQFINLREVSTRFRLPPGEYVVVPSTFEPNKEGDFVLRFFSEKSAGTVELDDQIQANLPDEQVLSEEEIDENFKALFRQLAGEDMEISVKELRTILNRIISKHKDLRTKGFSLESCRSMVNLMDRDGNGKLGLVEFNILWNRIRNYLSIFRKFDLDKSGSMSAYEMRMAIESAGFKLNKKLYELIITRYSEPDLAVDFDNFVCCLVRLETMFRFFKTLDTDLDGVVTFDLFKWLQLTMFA
T2 sequence (P04632 1-268 partner): T1 sequence (P04632 1-268 partner)
Description: Biochemical inhibition of calpain 1, continuous fluorescence (FRET substrate) assay. Particulars: mean; read-out: Human Calpain 1/NS1 IC50 (nM)_MEAN. A digest of the protocol: as §1

Test [1] has as its system calpain activity in SH-SY5Y cells (Spectrin). Description: SH-SY5Y Spectrin cellular calpain inhibition. The test is classed as cell-based.
The target of another test is T3, Human Calpain 2/NS1 (Homo sapiens, UniProt P17655).
T3 sequence (P17655 1-700): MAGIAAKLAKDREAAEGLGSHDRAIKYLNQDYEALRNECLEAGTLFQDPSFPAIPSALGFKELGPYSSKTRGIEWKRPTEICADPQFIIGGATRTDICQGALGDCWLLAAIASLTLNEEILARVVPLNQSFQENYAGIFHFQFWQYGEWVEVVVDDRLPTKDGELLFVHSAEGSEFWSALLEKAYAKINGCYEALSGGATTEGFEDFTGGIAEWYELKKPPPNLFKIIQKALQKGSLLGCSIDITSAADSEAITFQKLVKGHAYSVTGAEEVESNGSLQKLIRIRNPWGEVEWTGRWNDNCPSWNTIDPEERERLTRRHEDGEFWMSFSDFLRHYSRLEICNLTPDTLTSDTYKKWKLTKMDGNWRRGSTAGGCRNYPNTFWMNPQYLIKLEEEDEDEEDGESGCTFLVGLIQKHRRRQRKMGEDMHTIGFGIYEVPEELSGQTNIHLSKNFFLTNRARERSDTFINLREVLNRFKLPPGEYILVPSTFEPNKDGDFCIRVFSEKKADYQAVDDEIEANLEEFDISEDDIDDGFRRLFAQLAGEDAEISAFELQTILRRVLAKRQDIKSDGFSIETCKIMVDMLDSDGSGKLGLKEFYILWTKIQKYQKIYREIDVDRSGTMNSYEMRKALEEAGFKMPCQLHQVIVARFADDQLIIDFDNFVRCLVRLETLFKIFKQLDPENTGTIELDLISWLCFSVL
T3 sequence (P04632 1-268 partner): T1 sequence (P04632 1-268 partner)
Description: Biochemical inhibition of calpain 2, continuous fluorescence (FRET substrate) assay. Particulars: mean; read-out: Human Calpain 2/NS1 1C50 [sic] (nM)_MEAN. A digest of the protocol: as §1

Test [2] deals with calpain activity in SH-SY5Y cells. Description: SH-SY5Y cellular calpain activity, Suc-LLVY-AMC fluorescence assay. It is filed as cell-based. Particulars: Suc-LLVY-AMC substrate. A digest of the protocol: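 SH-SY5Y cells (1% serum, seeded overnight at 37 C) pre-incubated 30 min with serially diluted compound, then given 100 uM cell-permeable Suc-LLVY-AMC. AMC fluorescence followed continuously on FLIPR; slopes taken as calpain activity, and IC50 from 4-parameter logistic fit of slope versus log concentration.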

As for `COc1ccc(Cl)cc1C(=O)NC(C=O)Cc1ccccc1` (stereo not shown) [Compound 37, 5-CHLORO-2-METHOXY-N-(1-OXO-3-PHENYLPROPAN-2-YL)BENZAMIDE], the IC50 was over 10000 nM at Human Calpain 9/NS1; 3000 to 10000 nM on Human Calpain 1/NS1; over 25 µM in test [1]; under 3000 nM on Human Calpain 2/NS1; over 25 µM in test [2].
`NC(=O)C(=O)[C@H](Cc1ccccc1)NC(=O)c1cc(Cl)ccc1Cl` [Compound 22, (S)—N-(4-AMINO-3,4-DIOXO-1-PHENYLBUTAN-2-YL)-2,5-DICHLOROBENZAMIDE]: the IC50 at Human Calpain 9/NS1 was under 3000 nM; on Human Calpain 1/NS1, under 3000 nM; in test [1], 10 to 25 µM; on Human Calpain 2/NS1, under 3000 nM; in test [2], under 10 µM.
For the compound `Cc1ccc(F)c(C(=O)N[C@@H](Cc2ccccc2)C(=O)C(N)=O)c1Cl` [Compound 30, (S)—N-(4-AMINO-3,4-DIOXO-1-PHENYLBUTAN-2-YL)-2-CHLORO-6-FLUORO-3-METHYLBENZAMIDE], the IC50 on Human Calpain 9/NS1 was under 3000 nM; at Human Calpain 1/NS1, under 3000 nM; in test [1], 10 to 25 µM; at Human Calpain 2/NS1, under 3000 nM; in test [2] it was under 10 µM.
As for `O=CC(Cc1ccccc1)NC(=O)c1c(F)cccc1C(F)(F)F` (stereo not shown) [Compound 39, 2-FLUORO-N-(1-OXO-3-PHENYLPROPAN-2-YL)-6-(TRIFLUOROMETHYL)BENZAMIDE], the IC50 at Human Calpain 9/NS1 was under 3000 nM; at Human Calpain 1/NS1 it was under 3000 nM; in test [1], over 25 µM; at Human Calpain 2/NS1, under 3000 nM; in test [2], 10 to 25 µM.
Consider `Cn1c2ccccc2c2c(C(=O)NC(Cc3ccccc3)C(=O)C(N)=O)cccc21` (stereo not shown) [Compound 11, N-(4-AMINO-3,4-DIOXO-1-PHENYLBUTAN-2-YL)-9-METHYL-9H-CARBAZOLE-4-CARBOXAMIDE], for which the IC50 at Human Calpain 9/NS1 was under 3000 nM; on Human Calpain 1/NS1 it was under 3000 nM; in test [1], 10 to 25 µM; on Human Calpain 2/NS1, under 3000 nM; in test [2], under 10 µM.
Regarding `Cn1c2ccccc2c2c(C(=O)NC(C=O)Cc3ccccc3)cccc21` (stereo not shown) [Compound 47, 9-METHYL-N-(1-OXO-3-PHENYLPROPAN-2-YL)-9H-CARBAZOLE-4-CARBOXAMIDE], the IC50 at Human Calpain 9/NS1 is under 3000 nM; on Human Calpain 1/NS1, under 3000 nM; in test [1], over 25 µM; at Human Calpain 2/NS1, under 3000 nM; in test [2], under 10 µM.
Consider `NC(=O)C(=O)[C@H](Cc1ccccc1)NC(=O)c1c(F)cc(F)cc1F` [Compound 3, (S)—N-(4-AMINO-3,4-DIOXO-1-PHENYLBUTAN-2-YL)-2,4,6-TRIFLUOROBENZAMIDE], for which the IC50 at Human Calpain 9/NS1 is under 3000 nM; at Human Calpain 1/NS1 it was under 3000 nM; in test [1], over 25 µM; on Human Calpain 2/NS1 it was under 3000 nM; in test [2] it was 10 to 25 µM.
As for `COc1ccc(Br)cc1C(=O)N[C@@H](Cc1ccccc1)C(=O)C(N)=O` [Compound 35, (S)—N-(4-AMINO-3,4-DIOXO-1-PHENYLBUTAN-2-YL)-5-BROMO-2-METHOXYBENZAMIDE], the IC50 was under 3000 nM at Human Calpain 9/NS1; under 3000 nM on Human Calpain 1/NS1; 10 to 25 µM in test [1]; under 3000 nM at Human Calpain 2/NS1; under 10 µM in test [2].
On to `O=CC(Cc1ccccc1)NC(=O)c1cccc2c1Oc1ccccc1O2` (stereo not shown) [Compound 48], for which the IC50 was under 3000 nM at Human Calpain 9/NS1; under 3000 nM on Human Calpain 1/NS1; over 25 µM in test [1]; under 3000 nM on Human Calpain 2/NS1; over 25 µM in test [2].
Consider `O=CC(Cc1ccccc1)NC(=O)c1c(C(F)(F)F)ccc(Cl)c1F` (stereo not shown) [Compound 38, 3-CHLORO-2-FLUORO-N-(1-OXO-3-PHENYLPROPAN-2-YL)-6-(TRIFLUOROMETHYL)BENZAMIDE], for which the IC50 at Human Calpain 9/NS1 is under 3000 nM; on Human Calpain 1/NS1, under 3000 nM; in test [1], under 10 µM; on Human Calpain 2/NS1 it was under 3000 nM; in test [2], 10 to 25 µM.
On to `NC(=O)C(=O)[C@H](Cc1ccccc1)NC(=O)c1c(Cl)cccc1Br` [Compound 14, (S)—N-(4-AMINO-3,4-DIOXO-1-PHENYLBUTAN-2-YL)-2-BROMO-6-CHLOROBENZAMIDE], for which the IC50 is under 3000 nM on Human Calpain 9/NS1; under 3000 nM on Human Calpain 1/NS1; 10 to 25 µM in test [1]; under 3000 nM at Human Calpain 2/NS1; under 10 µM in test [2].
